# Changes are numbered by the printed parent chain. Entries after “also recorded” stand apart in the source; their conditions may differ. Where a SMILES comes first, the peptide text is derived from it. The star is where a group is joined. X1 = CN(C)c1ccc2c(-c3ccc(C(=O)*)cc3C(=O)[O-])c3ccc(=[N+](C)C)cc-3oc2c1
# Experiments:
# NHERF1 PDZ1 and PDZ2 = settings: PDZ1 versus PDZ2; ref [10],[14]–[16]; cited from earlier work
# Text: Na^+/H^+ Exchanger Regulatory Factor-1 (NHERF1), also known as the 50-kDa ezrin-binding protein EBP50, is a multi-domain scaffolding protein that coordinates the assembly and trafficking of transmembrane receptors and ion channels. […] PDZ domains of NHERF1 recognize the X-S/T-X-ΦCOO ^- sequence of target partners (class I PDZ-binding motifs), where X is promiscuous and Φ is a hydrophobic residue. By conve ...
# NHERF1 PDZ2 N167H/D183E = target: T1, NHERF1 PDZ2 N167H/D183E (Homo sapiens, UniProt O14745, D183E/N167H); test: FP saturation binding, PDZ2 N167H/D183E; settings: Asn167His/Asp183Glu PDZ2
# T1 construct: pET16-N1P2 encoding PDZ2 (133–300) of NHERF1; inferred from pET16 vector and Ni-NTA purification; made in house; host or cells: E. coli BL21 (DE3)
# T1 sequence (O14745 133-300 N167H/D183E): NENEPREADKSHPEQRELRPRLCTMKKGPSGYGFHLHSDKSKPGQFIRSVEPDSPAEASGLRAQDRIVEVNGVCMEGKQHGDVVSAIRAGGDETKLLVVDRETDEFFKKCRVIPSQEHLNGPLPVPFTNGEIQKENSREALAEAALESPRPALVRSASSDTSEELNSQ
# NHERF1 PDZ1 (1–140) = target: T2, NHERF1 PDZ1 (1–140) (Homo sapiens, UniProt O14745); test: FP saturation binding, PDZ1 (1–140); settings: acidic pH (5.5, 6.0) compared to pH 7.4
# T2 construct: The expression plasmids pET16-N1P1 encoding PDZ1 (1–140); inferred from pET16 vector and Ni-NTA purification; made in house; host or cells: E. coli BL21 (DE3)
# T2 sequence (O14745 1-140): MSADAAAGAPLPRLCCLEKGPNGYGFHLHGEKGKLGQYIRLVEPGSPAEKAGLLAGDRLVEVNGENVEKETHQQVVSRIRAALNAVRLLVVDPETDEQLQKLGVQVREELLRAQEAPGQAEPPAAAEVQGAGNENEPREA
# NHERF1 PDZ1 (1–120) = target: T3, NHERF1 PDZ1 (1–120) (Homo sapiens, UniProt O14745); test: ITC, PDZ1 (1–120); type: binding; settings: 25°C
# T3 construct: PDZ1 (1–120)
# T3 sequence (O14745 1-120): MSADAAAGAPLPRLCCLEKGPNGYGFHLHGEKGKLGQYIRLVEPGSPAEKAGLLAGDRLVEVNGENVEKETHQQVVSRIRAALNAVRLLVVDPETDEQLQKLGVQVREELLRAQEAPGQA
# Method: (§1) ITC measurements were performed with a MicroCalTM Auto-iTC200 system (GE Healthcare) at 25°C. Before measurement, samples were dialyzed overnight at 4°C in a buffer containing 10 mM Hepes (pH 7.5), 10 mM NaCl, 0.5 mM EDTA, and 0.5 mM ββ-mercaptoethanol. For determining NPT2A binding to PDZ constructs, the reaction cells were filled with 460 μl of 25 μM of the indicated PDZ protein. The ligand NPT2A (200–250 μM), was titrated into the cell in 19 injections of 2 μl each, with 150 s intervals between each injection. To remove the contribution of NPT2A dilution heat, a control experiment has been performed by titrating NPT2A into the buffer, which was then subtracted from the actual experimental data.
# (§2) The ITC data were analyzed using Microcal Origin 7.0 and the manufacturer's provided VPViewer module to yield the association constant (Ka), stoichiometry (n), and the observed enthalpy change (ΔH°) for the binding reactions. Analysis of ITC data directly yielded ΔH° and Ka. The Gibbs energy calculated using the equation: ΔG°=−RTlnKa (3)
# (§3) The entropy change was then obtained using the standard thermodynamic expression.
# NHERF1 PDZ1 H27N (1–120) = target: T4, NHERF1 PDZ1 H27N (1–120) (Homo sapiens, UniProt O14745, H27N); test: ITC, PDZ1 H27N (1–120); type: binding
# T4 construct: PDZ1 H27N (1–120)
# T4 sequence (O14745 1-120 H27N): T3 sequence (O14745 1-120) with H27N
# Method: as §1, §2, §3
# NHERF1 PDZ2 D183E = target: T5, NHERF1 PDZ2 D183E (Homo sapiens, UniProt O14745, D183E); test: FP saturation binding, PDZ2 D183E; settings: Asp183Glu PDZ2
# T5 construct: pET16-N1P2 encoding PDZ2 (133–300) of NHERF1; inferred from pET16 vector and Ni-NTA purification; made in house; host or cells: E. coli BL21 (DE3)
# T5 sequence (O14745 133-300 D183E): T1 sequence (O14745 133-300 N167H/D183E) with H35N
# NHERF1 PDZ1 E43D (1–120) = target: T6, NHERF1 PDZ1 E43D (1–120) (Homo sapiens, UniProt O14745, E43D); test: ITC, PDZ1 E43D (1–120); type: binding
# T6 construct: PDZ1 E43D (1–120)
# T6 sequence (O14745 1-120 E43D): T3 sequence (O14745 1-120) with E43D
# Method: as §1, §2, §3
# [1] = target: T7, NHERF1 PDZ1 H27N/E43D (1–120) (Homo sapiens, UniProt O14745, E43D/H27N); test: ITC, PDZ1 H27N/E43D (1–120); type: binding
# T7 construct: PDZ1 H27N/E43D (1–120)
# T7 sequence (O14745 1-120 H27N/E43D): T3 sequence (O14745 1-120) with H27N, E43D
# Method: as §1, §2, §3
smiles,measurement,setting,value
CC(C)C[C@H](NC(=O)[C@H](CCCNC(=N)N)NC(=O)[C@@H](NC(=O)[C@H](C)NC(=O)[C@H](CC(N)=O)NC(=O)[C@H](Cc1c[nH]cn1)NC(=O)[C@H](Cc1c[nH]cn1)NC(=O)[C@H](C)NC(=O)[C@@H]1CCCN1C(=O)[C@H](CC(C)C)NC(=O)[C@H](C)NC(=O)[C@H](CC(C)C)NC(=O)[C@H](CCCNC(=N)N)NC(=O)[C@@H]1CCCN1C(=O)[C@H](CO)NC(=O)[C@@H]1CCCN1C(=O)[C@@H](NC(=O)[C@H](C)NC(=O)[C@@H]1CCCN1C(=O)[C@@H]1CCCN1C(=O)[C@H](CC(C)C)NC(=O)[C@H](CCC(=O)O)NC(=O)c1ccc(-c2c3ccc(=[N+](C)C)cc-3oc3cc(N(C)C)ccc23)c(C(=O)[O-])c1)[C@@H](C)O)[C@@H](C)O)C(=O)O [NPT2A] (X1-ELPPATPSPRLALPAHHNATRL-OH),binding selectivity,NHERF1 PDZ1 and PDZ2,binds only PDZ1
same,binding affinity,NHERF1 PDZ2 N167H/D183E,further enhancement of the binding affinity; also recorded: micromolar affinity
same,binding affinity at acidic pH,NHERF1 PDZ1 (1–140),significantly reduced compared to pH 7.4
same,N (stoichiometry),NHERF1 PDZ1 (1–120); pH 7.5,0.92
same,ΔH^o,NHERF1 PDZ1 (1–120); pH 7.5,-8.2 ± 0.8 kcal/mol
same,ΔG^o,"NHERF1 PDZ1 (1–120); pH 7.5, from Eq 3",-7.6 ± 0.8 kcal/mol
same,ΔS^o,"NHERF1 PDZ1 (1–120); pH 7.5, from Eq 4",-2.1±0.2 cal/mol/K
same,effect of His27Asn mutation on interaction,NHERF1 PDZ1 H27N (1–120); FP and ITC,decrease the interaction with NPT2A
same,N (stoichiometry),"NHERF1 PDZ1 H27N (1–120); ITC, 25°C, pH 7.5",0.61
same,ΔH^o,"NHERF1 PDZ1 H27N (1–120); ITC, 25°C, pH 7.5",-7.5 ± 0.7 kcal/mol
same,ΔG^o,"NHERF1 PDZ1 H27N (1–120); ITC, 25°C, pH 7.5, from Eq 3",-7.2 ± 0.7 kcal/mol
same,ΔS^o,"NHERF1 PDZ1 H27N (1–120); ITC, 25°C, pH 7.5, from Eq 4",-0.86±0.08 cal/mol/K
same,∆∆G^o,"NHERF1 PDZ1 H27N (1–120); ∆G^o H27N - ∆G^o WT, ITC",about 0.4 kcal/mol
same,∆∆H^o,"NHERF1 PDZ1 H27N (1–120); ∆H^o H27N - ∆H^o WT, ITC",0.7 kcal/mol
same,∆∆S^o,"NHERF1 PDZ1 H27N (1–120); ∆S^o H27N - ∆S^o WT, ITC",1.3 cal mol^-1 K^-1
same,binding affinity,NHERF1 PDZ2 D183E,micromolar affinity
same,effect of Glu43Asp mutation on interaction,NHERF1 PDZ1 E43D (1–120); FP and ITC,decrease the interaction with NPT2A
same,∆∆H^o,"NHERF1 PDZ1 E43D (1–120); Glu43Asp PDZ1 minus WT, ITC",5.2 kcal/mol
same,∆∆S^o,"NHERF1 PDZ1 E43D (1–120); Glu43Asp PDZ1 minus WT, ITC",14.8 cal mol^-1 K^-1
same,N (stoichiometry),"NHERF1 PDZ1 E43D (1–120); ITC, 25°C, pH 7.5",0.60
same,ΔH^o,"NHERF1 PDZ1 E43D (1–120); ITC, 25°C, pH 7.5",-3.0 ± 0.3 kcal/mol
same,ΔG^o,"NHERF1 PDZ1 E43D (1–120); ITC, 25°C, pH 7.5, from Eq 3",-6.8 ± 0.7 kcal/mol
same,ΔS^o,"NHERF1 PDZ1 E43D (1–120); ITC, 25°C, pH 7.5, from Eq 4",12.7±1.0 cal/mol/K
same,∆∆G^o,"NHERF1 PDZ1 E43D (1–120); ∆G^o E43D - ∆G^o WT, ITC",0.8 kcal/mol
same,N (stoichiometry),"[1]; 25°C, pH 7.5",0.60
same,ΔH^o,"[1]; 25°C, pH 7.5",-5.8 ± 0.6 kcal/mol
same,ΔG^o,"[1]; 25°C, pH 7.5, from Eq 3",-6.5 ± 0.6 kcal/mol
same,ΔS^o,"[1]; 25°C, pH 7.5, from Eq 4",2.3±0.3 cal/mol/K
same,∆∆G^o,"[1]; His27 by Asn and Glu43 by Asp, versus WT",1.1 kcal/mol
